# According to US20260283124A1, “NON-HUMAN ANIMAL, KIT, AND METHOD FOR PRODUCING REPLACEMENT ORGAN” (THE JIKEI UNIVERSITY, priority 2023, published 2026):
# Entries after “also recorded” stand apart in the source; their conditions may differ. Where two headings read alike, the source gives them in different places.
# Experiments:
# [1] = tested on: NPCs; assay: Culture of fetal kidney of single allele knock-in (heterozygous) mice with CID and/or AT406; assay type: cell-based, mouse
# [2] = tested on: nephron progenitor cells; assay: Kidney organoid from nephron progenitor cells of Six2-iCaspase9-tdTomato mouse, CID administration; assay type: cell-based; settings: with CID administration
# Description: Nephron progenitor cells were isolated from the Six2-iCaspase9-tdTomato mouse prepared in Experimental Example 1, and a kidney organoid was prepared by three-dimensional culture. AP20187 (hereinafter, referred to as CID) was administered to the kidney organoid.
# [3] = tested on: Six2-positive nephron progenitor cells; assay: Organ culture on Transwell of E11 fetal kidney of Six2-iCaspase9-tdTomato mouse with CID in medium; assay type: cell-based; settings: for Expression of tdTomato fluorescence in nephron progenitor cells: second day after administration
# Description: The kidney was excised from an E11 fetus of the Six2-iCaspase9-tdTomato mouse prepared in Experimental Example 1, and organ culture was performed on a Transwell. In the group in which AP20187 (CID) was administered to the culture medium, the expression of tdTomato fluorescence in nephron progenitor cells was reduced on the second day after administration (see FIG. 4).
# [4] = tested on: Six2-positive nephron progenitor cells; assay: Intraperitoneal administration to neonatal Six2-iCaspase9-tdTomato mice, kidneys collected 48 hours later; assay type: in vivo, mouse
# Description: AP20187 (CID) was intraperitoneally administered to neonatal Six2-iCaspase9-tdTomato mice prepared in Experimental Example 1, and the […] mouse kidneys were collected 48 hours later.
# [5] = tested on: Six2-positive nephron progenitor cells; assay: TUNEL staining of organ-cultured E13 fetal kidney of Six2-iCaspase9-tdTomato mouse; assay type: cell-based; settings: 100 nM CID, 12 hours after administration
# Description: The kidney was excised from an E13 fetus of the Six2-iCaspase9-tdTomato mouse prepared in Experimental Example 1, and organ culture was performed on a Transwell. Apoptosis was evaluated by TUNEL staining after collection at 12 and 18 hours following the administration of 100 nM CID to the culture medium.
# [6] = tested on: NPCs; assay: Culture of kidneys of E13.5 fetuses of both allele knock-in (homozygous) mice with CID; assay type: cell-based, mouse; settings: 100 nM of CID, homozygous E13.5 fetal kidney culture
# Description: In a case where the kidneys of E13.5 fetuses of both allele knock-in (homozygous) mice were collected, CID was added thereto, and the kidneys were cultured, it was confirmed that 90% or more of NPCs were removed by adding 100 nM of CID (see FIG. 10).
# [7] = tested on: NPCs; assay: Subcutaneous administration to homozygous neonatal mice; assay type: in vivo, mouse
# [8] = tested on: NPCs; assay: Administration to heterozygous neonatal mice, CID alone or combined with AT406; assay type: in vivo, mouse
# [9] = tested on: NPCs; assay: Intraperitoneal administration to pregnant dam carrying homozygous fetuses; assay type: in vivo, mouse
# Excerpt: The CID was intraperitoneally administered to a pregnant dam carrying homozygous fetuses (see FIG. 15). As a result, it was confirmed that the kidney size of the neonates (PO) was reduced and the cap mesenchyme structure, which constitutes the nephrogenic niche formed by NPCs, was disrupted (see FIG. 16). […] Furthermore, a decrease in the number of glomeruli was also confirmed (see FIG. 18).
# [10] = tested on: glomeruli; assay: Nephron replacement: rat renal progenitor cells injected into homozygous fetal kidney, CID-added culture medium, then transplanted into immunodeficient mice; assay type: in vivo, mouse; settings: rat RPCs injected, day 14 after transplant into immunodeficient mice
# Description: It was verified whether or not the replacement of nephron could be induced by transplanting the exogenous NPC at the same time as the removal of the NPC of the fetal kidney (see FIG. 20). In a case where renal progenitor cells (RPCs) of rats were injected into a homozygous fetal kidney and cultured in a CID-added culture medium, it was confirmed that at the time point of day 4, the renal progenitor cells adhered to the ureteral bud of the host and formed a chimeric cap mesenchyme (see FIG. 21). In addition, in a case where the cells were transplanted into immunodeficient mice after the cell injection and allowed to develop in vivo, it was confirmed that at the time point of day 14, the rat-derived cells differentiated into glomeruli and renal tubules, and approximately 80% of the glomeruli were replaced with rat-derived cells. A rat distal tubule connected to the collecting duct derived from the fetal mouse kidney was also confirmed (see FIG. 22).
# [11] = administration at E13.5, animal at 1 month of age
# [12] = intraperitoneal to pregnant dam, homozygous fetuses
smiles,measurement,setting,value
CN[C@@H](C)C(=O)N[C@H]1CN(C(=O)CC(C)C)CC[C@H]2CC[C@@H](C(=O)NC(c3ccccc3)c3ccccc3)N2C1=O [AT406],NPC removal,"[1]; single administration of AT406, heterozygous fetal kidney culture",NPC removal did not occur
"CC[C@H](C(=O)N1CCCC[C@H]1C(=O)O[C@H](CCc1ccc(OC)c(OC)c1)c1cccc(OCC(=O)NCC(CNC(=O)COc2cccc([C@@H](CCc3ccc(OC)c(OC)c3)OC(=O)[C@@H]3CCCCN3C(=O)[C@@H](CC)c3cc(OC)c(OC)c(OC)c3)c2)CN(C)C)c1)c1cc(OC)c(OC)c(OC)c1 [CID, AP20187]",Apoptosis of nephron progenitor cells (immunostained image),[2],subjected to apoptosis; also recorded: Induced cell death of nephron progenitor cells was observed
same,Removal of Six2-positive nephron progenitor cells (immunostaining),[3]; day 3,removal of Six2-positive nephron progenitor cells was confirmed
same,Expression of tdTomato fluorescence in nephron progenitor cells,[3],removal of nephron progenitor cells
same,Expression of tdTomato fluorescence in nephron progenitor cells,[3]; listed as AP20187,reduced
same,Nephron progenitor cell marker Six2 (immunostaining) in kidney,[4],disappeared; also recorded: removal of Six2-positive nephron progenitor cells in the neonatal kidney was observed
same,"Nephron progenitor cells (red, tdTomato fluorescence) in kidney",[4],disappeared due to apoptosis
same,"Nephron progenitor cells (red, tdTomato fluorescence) in kidney",[4]; listed as AP20187,removal of Six2-positive nephron progenitor cells in the neonatal kidney was observed
same,"Apoptosis by TUNEL staining, co-localization with Six2-positive nephron progenitor cells",[5],TUNEL positivity was observed
same,NPCs removed,[6],≥ 90%
same,NPC removal,"[1]; 100 nM of CID alone, heterozygous fetal kidney culture",NPC removal was not confirmed
same,NPC removal,[7],NPC removal was confirmed
same,NPC removal,[8],NPC removal does not occur
same,Survival of animals after birth,[9]; administration at E11.5,died due to severe renal failure
same,Survival of animals after birth,[9]; administration at E13.5,survival of animals was confirmed
same,Serum urea nitrogen (BUN) compared with the control,[9]; [11],significantly increased
same,Urinary albumin-to-creatinine ratio (ACR) compared with the control,[9]; [11],significantly increased
same,Cap mesenchyme structure (nephrogenic niche formed by NPCs),[9]; [12],disrupted
same,Kidney size of the neonates (P0),[9]; [12],reduced
same,NPCs by immunostaining,[9]; [12],disappearance of the NPCs was confirmed
same,Number of glomeruli,[9]; [12],decrease
same,Glomeruli replaced with rat-derived cells,[10],approximately 80%
